Holding throughout (assay): In vitro antibiotic activity, agar dilution method (Mueller-Hinton agar, NCCLS)
What all share (type): cell-based

The test system of one assay is K. pneumoniae ATCC 29665. Conditions: Klebsiella pneumoniae, ATCC29665; agar dilution, Mueller-Hinton agar; read-out: MIC for K. pneumoniae ATCC 29665. As to the method: (§1) To measure the antibiotic activity of the compounds prepared by Examples, antibiotic activity test in vitro was performed by agar dilution method using Mueller-Hinton agar according to the NCCLS (National Committee for Clinical Laboratory Standards. 2000. Methods for dilution antimicrobial susceptibility tests for bacteria that grow aerobiocally. Approved standard, NCCLS document M7-M5, 5th ed, vol 20, no 2. National Committee for Clinical Laboratory Standards, Wayne, Pa.). The test strain was Escherichia coli (ATCC 25922), Klebsiella pneumonia (ATCC 29665) and Pseudomonas aeriginosa (PAO1).
On the technique in general: In agar dilution the substance is mixed into plates at graded concentrations.

The test system of the next assay is P. aeruginosa PAO1. As to conditions: Pseudomonas aeruginosa, PAO1; agar dilution, Mueller-Hinton agar; read-out: MIC for P. aeruginosa PAO1. As to the method: as §1
For the next assay, the system named is E. coli ATCC 25922. As to conditions: Escherichia coli, ATCC25922; agar dilution, Mueller-Hinton agar; read-out: MIC for E. coli ATCC 25922. As to the method: as §1

≈ marks a conversion by molar mass, not a printed value. A value given as a limit tells only on which side of the number the result lay.

The term MIC denotes the smallest concentration in the dilution series that meets the test's criterion for growth inhibition.

For the molecule `COc1ccc(C#Cc2ccc(C3=CCN(CCC(C)(C(=O)NO)S(C)(=O)=O)CC3)cc2)cc1` (stereo not drawn) [Example 3, N-hydroxy-4-(4-(4-((4-methoxyphenyl)ethynyl)phenyl)-3,6-dihydropyridin-1(2H)-yl)-2-methyl-2-(methylsulfonyl)butanamide], the MIC in the assay with K. pneumoniae ATCC 29665 was 1 to 8 µg/mL (≈ 2.07 to 16.6 µM); in the assay with P. aeruginosa PAO1, over 16 µg/mL; in the assay on E. coli ATCC 25922 it was over 16 µg/mL.
Turning to `CN(C)CCCC#Cc1ccc(C2=CCN(CCC(C)(C(=O)NO)S(C)(=O)=O)CC2)cc1` (stereo not drawn) [Example 20, 4-(4-(4-(5-(dimethylamino)pent-1-yn-1-yl)phenyl)-3,6-dihydropyridin-1(2H)-yl)-N-hydroxy-2-methyl-2-(methylsulfonyl)butanamide], the MIC with K. pneumoniae ATCC 29665 lay in the range of 8 to 16 µg/mL (≈ 17.3 to 34.7 µM); with P. aeruginosa PAO1, 8 to 16 µg/mL (≈ 17.3 to 34.7 µM); in the assay with E. coli ATCC 25922 it was 1 to 8 µg/mL (≈ 2.17 to 17.3 µM).
`CC(CCN1CC=C(c2ccc(C#CC#CCCCO)c(F)c2)CC1)(C(=O)NO)S(C)(=O)=O` (stereo not drawn) [Example 42, 4-(4-(3-fluoro-4-(7-hydroxyhepta-1,3-diyn-1-yl)phenyl)-3,6-dihydropyridin-1(2H)-yl)-N-hydroxy-2-methyl-2-(methylsulfonyl)butanamide]: the MIC in the assay on K. pneumoniae ATCC 29665 is 1 to 8 µg/mL (≈ 2.1 to 16.8 µM); in the assay on P. aeruginosa PAO1, 1 to 8 µg/mL (≈ 2.1 to 16.8 µM); with E. coli ATCC 25922 it was under 1 µg/mL.
`CC(CCN1CC=C(c2ccc(C#CCCCCN3CCOCC3)cc2)CC1)(C(=O)NO)S(C)(=O)=O` (stereo not drawn) [Example 30, N-hydroxy-2-methyl-2-(methylsulfonyl)-4-(4-(4-(6-morpholinohex-1-yn-1-yl)phenyl)-3,6-dihydropyridin-1(2H)-yl)butanamide]: the MIC in the assay on K. pneumoniae ATCC 29665 was 1 to 8 µg/mL (≈ 1.93 to 15.5 µM); in the assay with P. aeruginosa PAO1, 1 to 8 µg/mL (≈ 1.93 to 15.5 µM); with E. coli ATCC 25922, under 1 µg/mL.
Turning to `CC(CCN1CC=C(c2ccc(C#CCC3CCCCC3)cc2)CC1)(C(=O)NO)S(C)(=O)=O` (stereo not drawn) [Example 12, 4-(4-(4-(3-cyclohexylprop-1-yn-1-yl)phenyl)-3,6-dihydropyridin-1(2H)-yl)-N-hydroxy-2-methyl-2-(methylsulfonyl)butanamide], the results for the minimum inhibitory concentration (MIC) with K. pneumoniae ATCC 29665, with P. aeruginosa PAO1 and in the assay with E. coli ATCC 25922 were 8 to 16 µg/mL (≈ 16.9 to 33.9 µM), over 16 µg/mL and 8 to 16 µg/mL (≈ 16.9 to 33.9 µM), respectively.
As for `CC(CCN1CC=C(c2ccc(C#CC3CN(S(C)(=O)=O)C3)cc2)CC1)(C(=O)NO)S(C)(=O)=O` (stereo not drawn) [Example 41, N-hydroxy-2-methyl-2-(methylsulfonyl)-4-(4-(4-((1-(methylsulfonyl)azetidin-3-yl)ethynyl)phenyl)-3,6-dihydropyridin-1(2H)-yl)butanamide], the MIC with K. pneumoniae ATCC 29665 is 8 to 16 µg/mL (≈ 15.7 to 31.4 µM); in the assay with P. aeruginosa PAO1, 8 to 16 µg/mL (≈ 15.7 to 31.4 µM); in the assay on E. coli ATCC 25922 it was 1 to 8 µg/mL (≈ 1.96 to 15.7 µM).
On to `CC(CCN1CC=C(c2ccc(C#CC#CCCO)cc2)CC1)(C(=O)NO)S(C)(=O)=O` (stereo not drawn) [Example 47, N-hydroxy-4-(4-(4-(6-hydroxyhexa-1,3-diyn-1-yl)phenyl)-3,6-dihydropyridin-1(2H)-yl)-2-methyl-2-(methylsulfonyl)butanamide], for which the MIC in the assay with K. pneumoniae ATCC 29665 was 1 to 8 µg/mL (≈ 2.25 to 18 µM); with P. aeruginosa PAO1, under 1 µg/mL; in the assay with E. coli ATCC 25922 it was under 1 µg/mL.
As to `CC(CCN1CC=C(c2ccc(C#CC#CCO)cc2)CC1)(C(=O)NO)S(C)(=O)=O` (stereo not drawn) [Example 48, N-hydroxy-4-(4-(4-(5-hydroxypenta-1,3-diyn-1-yl)phenyl)-3,6-dihydropyridin-1(2H)-yl)-2-methyl-2-(methylsulfonyl)butanamide], the MIC in the assay on K. pneumoniae ATCC 29665 was 1 to 8 µg/mL (≈ 2.32 to 18.6 µM); in the assay with P. aeruginosa PAO1 it was under 1 µg/mL; in the assay with E. coli ATCC 25922, under 1 µg/mL.
Regarding `CCCCCc1ccc(-c2ccc(C3=CCN(CCC(C)(C(=O)NO)S(C)(=O)=O)CC3)cc2)cc1` (stereo not drawn) [Example 67, N-hydroxy-2-methyl-2-(methylsulfonyl)-4-(4-(4′-pentyl-[1,1′-biphenyl]-4-yl)-3,6-dihydropyridin-1(2H)-yl)butanamide], the results for the MIC in the assay on K. pneumoniae ATCC 29665, in the assay on P. aeruginosa PAO1 and with E. coli ATCC 25922 were over 16 µg/mL, over 16 µg/mL and 8 to 16 µg/mL (≈ 16 to 32.1 µM), respectively.
For `CC(CCN1CC=C(c2ccc(C#CC#CCCCO)cc2)CC1)(C(=O)NO)S(C)(=O)=O` (stereo not drawn) [Example 46, N-hydroxy-4-(4-(4-(7-hydroxyhepta-1,3-diyn-1-yl)phenyl)-3,6-dihydropyridin-1(2H)-yl)-2-methyl-2-(methylsulfonyl)butanamide], the MIC with K. pneumoniae ATCC 29665 was 1 to 8 µg/mL (≈ 2.18 to 17.4 µM); with P. aeruginosa PAO1, 1 to 8 µg/mL (≈ 2.18 to 17.4 µM); with E. coli ATCC 25922, under 1 µg/mL.
Take `COc1ccsc1-c1ccc(C2=CCN(CCC(C)(C(=O)NO)S(C)(=O)=O)CC2)cc1.Cl` (stereo not drawn) [Example 71, N-hydroxy-4-(4-(4-(3-methoxythiophen-2-yl)phenyl)-3,6-dihydropyridin-1(2H)-yl)-2-methyl-2-(methylsulfonyl)butanamide hydrochloride]: the minimum inhibitory concentration (MIC) was under 1 µg/mL in the assay with K. pneumoniae ATCC 29665, over 16 µg/mL in the assay with P. aeruginosa PAO1 and under 1 µg/mL in the assay on E. coli ATCC 25922.
`CC(=O)N1CC(C#Cc2ccc(C3=CCN(CCC(C)(C(=O)NO)S(C)(=O)=O)CC3)cc2)C1` (stereo not drawn) [Example 40, 4-(4-(4-((1-acetylazetidin-3-yl)ethynyl)phenyl)-3,6-dihydropyridin-1(2H)-yl)-N-hydroxy-2-methyl-2-(methylsulfonyl)butanamide]: the minimal inhibitory concentration (MIC) in the assay on K. pneumoniae ATCC 29665, in the assay with P. aeruginosa PAO1 and in the assay on E. coli ATCC 25922 was 1 to 8 µg/mL (≈ 2.11 to 16.9 µM) in each case.
As to `CC(CCN1CC=C(C#CC#CCCCO)CC1)(C(=O)NO)S(C)(=O)=O` (stereo not drawn) [Example 54, N-hydroxy-4-(4-(7-hydroxyhepta-1,3-diyn-1-yl)-3,6-dihydropyridin-1(2H)-yl)-2-methyl-2-(methylsulfonyl)butanamide], the MIC in the assay on K. pneumoniae ATCC 29665 was over 16 µg/mL; with P. aeruginosa PAO1, over 16 µg/mL; with E. coli ATCC 25922, 8 to 16 µg/mL (≈ 20.9 to 41.8 µM).
On to `CC(CCN1CC=C(c2ccc(-c3ccc(CO)cc3)cc2)CC1)(C(=O)NO)S(C)(=O)=O` (stereo not drawn) [Example 65, N-hydroxy-4-(4-(4′-(hydroxymethyl)-[1,1′-biphenyl]-4-yl)-3,6-dihydropyridin-1(2H)-yl)-2-methyl-2-(methylsulfonyl)butanamide], for which the values for the MIC with K. pneumoniae ATCC 29665, in the assay on P. aeruginosa PAO1 and with E. coli ATCC 25922 were 8 to 16 µg/mL (≈ 17.4 to 34.9 µM), over 16 µg/mL and under 1 µg/mL, respectively.
On the same counts, the results for `CC(CCN1CC=C(c2ccc(-c3ccc(F)nc3)cc2)CC1)(C(=O)NO)S(C)(=O)=O` (stereo not drawn) [Example 62, 4-(4-(4-(6-fluoropyridin-3-yl)phenyl)-3,6-dihydropyridin-1(2H)-yl)-N-hydroxy-2-methyl-2-(methylsulfonyl)butanamide] are 1 to 8 µg/mL (≈ 2.23 to 17.9 µM), 1 to 8 µg/mL (≈ 2.23 to 17.9 µM) and under 1 µg/mL.
On the same counts, the results for `CC(CCN1CC=C(c2ccc(-c3cccnc3)cc2)CC1)(C(=O)NO)S(C)(=O)=O` (stereo not drawn) [Example 61, N-hydroxy-2-methyl-2-(methylsulfonyl)-4-(4-(4-(pyridin-3-yl)phenyl)-3,6-dihydropyridin-1(2H)-yl)butanamide] are over 16 µg/mL, 1 to 8 µg/mL (≈ 2.33 to 18.6 µM) and 1 to 8 µg/mL (≈ 2.33 to 18.6 µM).
On the same counts, the results for `CC(CCN1CC=C(c2ccc(C#CCCCOS(C)(=O)=O)cc2)CC1)(C(=O)NO)S(C)(=O)=O` (stereo not drawn) [Example 19, 5-(4-(1-(4-(hydroxyamino)-3-methyl-3-(methylsulfonyl)-4-oxobutyl)-1,2,3,6-tetrahydropyridin-4-yl)phenyl)pent-4-yn-1-yl methanesulfonate] are 1 to 8 µg/mL, 1 to 8 µg/mL and under 1 µg/mL.
Regarding `CC(CCN1CC=C(c2ccc(C#CCCCOC(N)=O)cc2)CC1)(C(=O)NO)S(C)(=O)=O` (stereo not drawn) [Example 27, 5-(4-(1-(4-(hydroxyamino)-3-methyl-3-(methylsulfonyl)-4-oxobutyl)-1,2,3,6-tetrahydropyridin-4-yl)phenyl)pent-4-yn-1-yl carbamate], the MIC in the assay on K. pneumoniae ATCC 29665 was 1 to 8 µg/mL (≈ 2.09 to 16.8 µM); in the assay on P. aeruginosa PAO1, 1 to 8 µg/mL (≈ 2.09 to 16.8 µM); in the assay with E. coli ATCC 25922, under 1 µg/mL.
With `COCCCC#Cc1ccc(C2=CCN(CCC(C)(C(=O)NO)S(C)(=O)=O)CC2)cc1` (stereo not drawn) [Example 28, N-hydroxy-4-(4-(4-(5-methoxypent-1-yn-1-yl)phenyl)-3,6-dihydropyridin-1(2H)-yl)-2-methyl-2-(methylsulfonyl)butanamide], the results for the minimum inhibitory concentration (MIC) in the assay on K. pneumoniae ATCC 29665, in the assay with P. aeruginosa PAO1 and in the assay with E. coli ATCC 25922 were under 1 µg/mL, 1 to 8 µg/mL (≈ 2.23 to 17.8 µM) and under 1 µg/mL, respectively.
Turning to `CC(CCN1CC=C(c2ccc(C#CC#Cc3ccccc3)cc2)CC1)(C(=O)NO)S(C)(=O)=O` (stereo not drawn) [Example 51, N-hydroxy-2-methyl-2-(methylsulfonyl)-4-(4-(4-(phenylbuta-1,3-diyn-1-yl)phenyl)-3,6-dihydropyridin-1(2H)-yl)butanamide], the MIC in the assay on K. pneumoniae ATCC 29665, in the assay with P. aeruginosa PAO1 and in the assay with E. coli ATCC 25922 was over 16 µg/mL throughout.
As for `CC(CCN1CC=C(C#Cc2ccncc2)CC1)(C(=O)NO)S(C)(=O)=O` (stereo not drawn) [Example 52, N-hydroxy-2-methyl-2-(methylsulfonyl)-4-(4-(pyridin-4-ylethynyl)-3,6-dihydropyridin-1(2H)-yl)butanamide], the MIC in the assay on K. pneumoniae ATCC 29665 was over 16 µg/mL; with P. aeruginosa PAO1, over 16 µg/mL; with E. coli ATCC 25922, 8 to 16 µg/mL (≈ 21.2 to 42.4 µM).
Regarding `CC(CCN1CC=C(c2ccc(-c3ccncc3)cc2)CC1)(C(=O)NO)S(C)(=O)=O` (stereo not drawn) [Example 55, N-hydroxy-2-methyl-2-(methylsulfonyl)-4-(4-(4-(pyridin-4-yl)phenyl)-3,6-dihydropyridin-1(2H)-yl)butanamide], the minimal inhibitory concentration (MIC) with K. pneumoniae ATCC 29665, in the assay with P. aeruginosa PAO1 and in the assay with E. coli ATCC 25922 was 1 to 8 µg/mL (≈ 2.33 to 18.6 µM) throughout.
For the molecule `CN(C)CC#Cc1ccc(C2=CCN(CCC(C)(C(=O)NO)S(C)(=O)=O)CC2)cc1F` (stereo not drawn) [Example 31, 4-(4-(4-(3-(dimethylamino)prop-1-yn-1-yl)-3-fluorophenyl)-3,6-dihydropyridin-1(2H)-yl)-N-hydroxy-2-methyl-2-(methylsulfonyl)butanamide], the MIC is 1 to 8 µg/mL (≈ 2.21 to 17.7 µM) in the assay on K. pneumoniae ATCC 29665, 1 to 8 µg/mL (≈ 2.21 to 17.7 µM) in the assay with P. aeruginosa PAO1 and under 1 µg/mL in the assay on E. coli ATCC 25922.

(Values after patent US10160724B2, “Tetrahydropyridine derivatives and their use as antibacterial agents” (Dong-A St Co., Ltd., priority 2016, dated 2018).)
